Reference: paper PMC6811774, “Potent, selective, and subunit‐dependent activation of TRPC5 channels by a xanthine derivative” (British Journal of Pharmacology, 2019)

Legend:
Assay type in all cases: cell-based
TRPV4 = target: T1, TRPV4 (Homo sapiens, UniProt Q9HBA0); assay: [Ca2+]i selectivity assay, CHO cells stably expressing hTRPV4, 4α-PDD activation; conditions: 300 nM AM237; 5 μM 4α-PDD
T1 construct: expressed in transfected cells

TRPC6 = target: T2, TRPC6 (Homo sapiens, UniProt Q9Y210); assay: [Ca2+]i selectivity assay, WT HEK 293 cells transiently transfected with hTRPC6, OAG activation; conditions: 300 nM AM237; 100 μM OAG
T2 construct: expressed in transfected cells; host or cells: WT HEK 293 (transient, jetPRIME; pcDNA3)
T2 sequence (Q9Y210 1-931): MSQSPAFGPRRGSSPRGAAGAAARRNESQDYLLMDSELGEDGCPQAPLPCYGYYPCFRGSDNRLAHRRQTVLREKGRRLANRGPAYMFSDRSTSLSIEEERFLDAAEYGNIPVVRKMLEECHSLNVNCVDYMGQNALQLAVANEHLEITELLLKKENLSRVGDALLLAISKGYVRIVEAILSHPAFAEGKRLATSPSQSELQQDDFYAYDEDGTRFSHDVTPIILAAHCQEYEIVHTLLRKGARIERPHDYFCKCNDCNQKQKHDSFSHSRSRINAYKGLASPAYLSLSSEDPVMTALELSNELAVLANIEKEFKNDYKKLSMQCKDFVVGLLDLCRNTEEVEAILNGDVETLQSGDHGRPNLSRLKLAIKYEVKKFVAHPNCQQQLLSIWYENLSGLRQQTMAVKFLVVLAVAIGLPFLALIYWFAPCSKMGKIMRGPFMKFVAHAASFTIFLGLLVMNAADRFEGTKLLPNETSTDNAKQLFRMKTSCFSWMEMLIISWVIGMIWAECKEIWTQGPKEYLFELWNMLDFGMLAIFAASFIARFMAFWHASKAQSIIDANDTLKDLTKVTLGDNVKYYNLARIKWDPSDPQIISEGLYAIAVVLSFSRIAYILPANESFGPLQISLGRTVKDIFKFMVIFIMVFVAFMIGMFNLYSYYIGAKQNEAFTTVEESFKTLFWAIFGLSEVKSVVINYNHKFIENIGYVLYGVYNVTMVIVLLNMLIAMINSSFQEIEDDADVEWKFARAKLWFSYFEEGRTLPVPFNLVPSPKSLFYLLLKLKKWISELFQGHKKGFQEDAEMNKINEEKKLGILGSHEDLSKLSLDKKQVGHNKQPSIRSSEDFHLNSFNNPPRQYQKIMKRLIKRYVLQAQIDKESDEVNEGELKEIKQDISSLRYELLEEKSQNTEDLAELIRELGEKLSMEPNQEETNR

TRPC1:C5 channels = target: T3, TRPC1:C5 channels (Homo sapiens, UniProt P48995+Q9UL62); assay: Excised outside-out patch-clamp, HEK 293 cells transiently co-expressing hTRPC1 and hTRPC5
T3 construct: expressed in transfected cells; host or cells: HEK 293 (transient, Lipofectamine 3000)
Experimental: HEK T‐REx™ cell line was transfected with TRPC5‐SYFP2 or TRPC4‐SYFP2 using FuGENE® HD transfection reagent. After 48 hr, cells were put under antibiotic selection using 400 μg·ml^−1 zeocin and 10 μg·ml^−1 blasticidin S (Invivogen, San Diego, California, USA). Medium changes were carried out regularly to remove dead cells. HEK T‐REx cells expressing tetracycline‐inducible human TRPC5, TRPC4–C1, and TRPC5–C1 were created as described previously (Akbulut et al., 2015; Ludlow et al., 2017; Rubaiy, Ludlow, Henrot, et al., 2017). […]
For electrophysiology experiments, cells were plated at a low density of 20–30% onto round or square glass coverslips (13 mm diameter or 5 × 5 mm), and TRPC expression in HEK T‐REx was induced with 1 μg·ml^−1 tetracycline 24 hr before experimentation. […] The patch‐clamp currents were recorded using Axopatch 200B or HEKA EPC‐800 amplifiers, digitized by a Digidata 1440 or PCI6229 (National Instruments Japan, Tokyo, Japan) and recorded to a computer using pCLAMP10 (Molecular Devices) or WinWCPV4.5 (developed by Dr John Dempster, University of Strathclyde, UK). […]

T3 sequence (Q9UL62 whole entry): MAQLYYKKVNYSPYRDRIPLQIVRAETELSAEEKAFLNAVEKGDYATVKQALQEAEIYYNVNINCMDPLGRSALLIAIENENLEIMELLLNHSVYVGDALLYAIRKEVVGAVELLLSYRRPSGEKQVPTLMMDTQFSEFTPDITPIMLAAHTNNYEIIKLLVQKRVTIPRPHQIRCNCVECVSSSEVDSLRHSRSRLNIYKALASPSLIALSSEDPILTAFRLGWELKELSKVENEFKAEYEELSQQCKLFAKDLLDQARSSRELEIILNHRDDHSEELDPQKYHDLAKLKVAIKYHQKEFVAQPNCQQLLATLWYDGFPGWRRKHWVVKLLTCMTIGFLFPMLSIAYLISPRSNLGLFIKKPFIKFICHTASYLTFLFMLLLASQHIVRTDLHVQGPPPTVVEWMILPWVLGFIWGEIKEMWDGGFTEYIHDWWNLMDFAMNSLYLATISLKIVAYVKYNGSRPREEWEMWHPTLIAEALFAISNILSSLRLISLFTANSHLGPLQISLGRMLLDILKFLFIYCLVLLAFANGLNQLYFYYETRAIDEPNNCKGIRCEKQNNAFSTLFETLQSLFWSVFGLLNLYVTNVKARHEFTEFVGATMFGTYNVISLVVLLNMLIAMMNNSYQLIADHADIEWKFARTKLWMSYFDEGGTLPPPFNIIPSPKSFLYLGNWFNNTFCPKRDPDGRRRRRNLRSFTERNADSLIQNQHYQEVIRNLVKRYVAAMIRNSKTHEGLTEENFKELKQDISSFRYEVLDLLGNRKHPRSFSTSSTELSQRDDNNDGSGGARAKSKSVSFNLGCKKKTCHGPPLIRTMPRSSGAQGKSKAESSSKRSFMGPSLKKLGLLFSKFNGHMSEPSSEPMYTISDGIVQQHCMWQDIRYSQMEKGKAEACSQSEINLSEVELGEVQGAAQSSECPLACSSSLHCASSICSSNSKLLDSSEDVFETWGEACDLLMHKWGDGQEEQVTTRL
T3 sequence (P48995 whole entry): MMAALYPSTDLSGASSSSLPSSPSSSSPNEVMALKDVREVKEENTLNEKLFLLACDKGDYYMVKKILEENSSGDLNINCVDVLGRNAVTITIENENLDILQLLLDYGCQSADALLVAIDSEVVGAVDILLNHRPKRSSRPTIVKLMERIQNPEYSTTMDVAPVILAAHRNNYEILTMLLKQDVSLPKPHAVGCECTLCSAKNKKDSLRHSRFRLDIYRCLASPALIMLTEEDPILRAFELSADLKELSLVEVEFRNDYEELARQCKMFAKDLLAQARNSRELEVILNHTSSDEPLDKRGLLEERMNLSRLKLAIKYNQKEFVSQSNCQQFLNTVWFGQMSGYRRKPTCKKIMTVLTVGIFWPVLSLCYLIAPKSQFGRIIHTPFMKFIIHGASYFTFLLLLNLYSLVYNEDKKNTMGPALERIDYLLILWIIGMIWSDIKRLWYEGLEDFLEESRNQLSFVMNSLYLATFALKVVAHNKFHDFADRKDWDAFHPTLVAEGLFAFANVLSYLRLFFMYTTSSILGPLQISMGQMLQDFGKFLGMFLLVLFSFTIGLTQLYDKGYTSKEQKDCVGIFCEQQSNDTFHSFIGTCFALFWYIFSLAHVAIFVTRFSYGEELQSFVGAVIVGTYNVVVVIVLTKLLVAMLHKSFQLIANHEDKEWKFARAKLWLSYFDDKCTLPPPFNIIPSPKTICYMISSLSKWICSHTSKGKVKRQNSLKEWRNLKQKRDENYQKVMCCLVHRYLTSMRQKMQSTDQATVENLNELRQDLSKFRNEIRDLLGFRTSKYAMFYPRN
T1 sequence (Q9HBA0 whole entry): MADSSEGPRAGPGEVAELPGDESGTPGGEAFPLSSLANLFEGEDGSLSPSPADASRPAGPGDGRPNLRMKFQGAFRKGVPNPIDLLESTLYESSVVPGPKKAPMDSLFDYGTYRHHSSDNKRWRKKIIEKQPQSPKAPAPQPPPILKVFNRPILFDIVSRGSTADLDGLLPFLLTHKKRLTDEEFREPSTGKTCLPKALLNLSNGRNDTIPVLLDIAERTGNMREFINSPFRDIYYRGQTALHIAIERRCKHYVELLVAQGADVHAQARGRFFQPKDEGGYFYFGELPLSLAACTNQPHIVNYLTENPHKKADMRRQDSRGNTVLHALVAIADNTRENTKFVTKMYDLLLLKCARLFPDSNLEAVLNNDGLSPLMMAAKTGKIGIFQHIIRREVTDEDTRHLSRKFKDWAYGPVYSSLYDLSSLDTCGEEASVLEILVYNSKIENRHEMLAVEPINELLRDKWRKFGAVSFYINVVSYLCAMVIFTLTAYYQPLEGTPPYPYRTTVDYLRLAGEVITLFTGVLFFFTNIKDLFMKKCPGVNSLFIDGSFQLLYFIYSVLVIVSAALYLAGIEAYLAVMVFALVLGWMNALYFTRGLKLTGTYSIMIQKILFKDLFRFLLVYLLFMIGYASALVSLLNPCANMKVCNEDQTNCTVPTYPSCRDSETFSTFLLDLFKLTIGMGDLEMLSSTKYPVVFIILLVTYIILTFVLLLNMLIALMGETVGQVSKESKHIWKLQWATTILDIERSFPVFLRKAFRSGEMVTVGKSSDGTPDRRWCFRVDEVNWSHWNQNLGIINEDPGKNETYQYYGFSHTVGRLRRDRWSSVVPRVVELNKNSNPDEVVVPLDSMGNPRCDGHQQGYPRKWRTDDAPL

## Cn1c(=O)n(CCCO)c(=O)c2c1nc(Oc1ccc(Cl)c(OC(F)(F)F)c1)n2Cc1ccc(Cl)cc1 [AM237]
TRPV4
  Activation or inhibition of TRPV4: no activation or inhibition
TRPC6
  Activation or inhibition of TRPC6: no activation or inhibition
TRPC1:C5 channels; 30 nM EA, at 3 to 100 nM AM237
  Inhibition of inward and outward currents induced by EA: full inhibition
TRPC1:C5 channels; outside-out patch
  Activation of TRPC1:C5 currents: did not activate
